Results reported in PMC4570246 (Cancer letters, 2015).

Molecular target: β-tubulin (Homo sapiens, UniProt P07437)
Assay: SPR
Format: binding

Sequence of β-tubulin (P07437 whole entry): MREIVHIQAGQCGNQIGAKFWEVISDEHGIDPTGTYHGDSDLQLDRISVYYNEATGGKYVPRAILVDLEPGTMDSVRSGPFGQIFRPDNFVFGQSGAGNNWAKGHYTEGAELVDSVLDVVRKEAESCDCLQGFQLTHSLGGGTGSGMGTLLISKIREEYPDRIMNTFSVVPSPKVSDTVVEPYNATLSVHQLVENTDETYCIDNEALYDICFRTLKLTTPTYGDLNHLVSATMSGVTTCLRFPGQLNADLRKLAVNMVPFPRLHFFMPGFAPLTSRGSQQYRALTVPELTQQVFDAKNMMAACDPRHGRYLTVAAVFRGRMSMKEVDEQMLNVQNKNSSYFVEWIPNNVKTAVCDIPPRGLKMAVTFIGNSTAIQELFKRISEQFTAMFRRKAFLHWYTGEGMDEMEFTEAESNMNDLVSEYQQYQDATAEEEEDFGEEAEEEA

O=c1c(O)c(-c2ccc(O)c(O)c2)oc2cc(O)ccc12 [fisetin]
Kd: 1.59 µM

CC(=O)O[C@H]1C(=O)[C@@]2(C)[C@H]([C@H](OC(=O)c3ccccc3)[C@]3(O)C[C@H](OC(=O)[C@H](O)[C@@H](NC(=O)c4ccccc4)c4ccccc4)C(C)=C1C3(C)C)[C@]1(OC(C)=O)CO[C@@H]1C[C@@H]2O [paclitaxel]
Kd: 2.26 µM
